Measured values as given in US9549921B2, “Heterocyclic compounds and methods of use thereof for the treatment of hepatitis C” (priority 2014, dated 2017).

What was measured:
HCV replicon genotype 1a = experiment: HCV replicon assay, genotype 1a (cell ELISA for NS3/4A); type: cell-based, hepatitis C virus; details: Hepatitis C virus, 96 h, read-out: 1a IC50 (nM), HCV genotype 1a replicon cells, 96 hours incubation, NS3/4A ELISA readout, % of DMSO control
How it was run: (§1)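 Stable neomycin-resistant replicon cell lines (genotype 1a or 1b) incubated 96 h with compound dilution series without G418. After washing and lysis, replication measured by cell ELISA for replicon-encoded NS3/4A protein; IC50 as % of DMSO control via four-parameter fit.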

HCV replicon genotype 1b = experiment: HCV replicon assay, genotype 1b (cell ELISA for NS3/4A); type: cell-based, hepatitis C virus; details: Hepatitis C virus, 96 h, read-out: 1b IC50 (nM), HCV genotype 1b replicon cells, 96 hours incubation, NS3/4A ELISA readout, % of DMSO control
How it was run: as §1

Row | Structure (SMILES) | IC50 (HCV replicon genotype 1a) | IC50 (HCV replicon genotype 1b)
1 | CNC(=O)c1c(-c2ccc(F)cc2)oc2cc(N(C)S(C)(=O)=O)c([C@@H]3CCCN(S(=O)(=O)Cc4ccccn4)C3)cc12 [Example 123, 2-(4-fluorophenyl)-N-methyl-6-[methyl(methylsulfonyl)amino]-5-{(3S)-1-[(pyridin-2-ylmethyl)sulfonyl]piperidin-3-yl}-1-benzofuran-3-carboxamide] | 106 nM | 29.8 nM
2 | CNC(=O)c1c(-c2ccc(F)cc2)oc2cc(N(C)S(C)(=O)=O)c([C@@H]3CCCN(S(=O)(=O)CCc4ccccc4)C3)cc12 [Example 124, 2-(4-fluorophenyl)-N-methyl-6-[methyl(methylsulfonyl)amino]-5-{(3S)-1-[(2-phenylethyl)sulfonyl]piperidin-3-yl}-1-benzofuran-3-carboxamide] | 182 nM | 72.9 nM
3 | CNC(=O)c1c(-c2ccc(F)cc2)oc2cc(N(C)S(C)(=O)=O)c([C@@H]3CCCN(S(=O)(=O)c4cnc5n4CCCCC5)C3)cc12 [Example 125, 2-(4-fluorophenyl)-N-methyl-6-[methyl(methylsulfonyl)amino]-5-[(3S)-1-(6,7,8,9-tetrahydro-5H-imidazo[1,2-a]azepin-3-ylsulfonyl)piperidin-3-yl]-1-benzofuran-3-carboxamide] | 172 nM | 67.6 nM
4 | CNC(=O)c1c(-c2ccc(F)cc2)oc2cc(N(C)S(C)(=O)=O)c([C@@H]3CCCN(S(=O)(=O)c4cccc(C)c4)C3)cc12 [Example 126, 2-(4-fluorophenyl)-N-methyl-6-[methyl(methylsulfonyl)amino]-5-{(3S)-1-[(3-methylphenyl)sulfonyl]piperidin-3-yl}-1-benzofuran-3-carboxamide] | 46.9 nM | 13.2 nM
5 | CNC(=O)c1c(-c2ccc(F)cc2)oc2cc(N(C)S(C)(=O)=O)c([C@@H]3CCCN(S(=O)(=O)c4cnc5c(c4)OCCN5C)C3)cc12 [Example 127, 2-(4-fluorophenyl)-N-methyl-5-{(3S)-1-[(4-methyl-3,4-dihydro-2H-pyrido[3,2-b][1,4]oxazin-7-yl)sulfonyl]piperidin-3-yl}-6-[methyl(methylsulfonyl)amino]-1-benzofuran-3-carboxamide] | 90.2 nM | 32.4 nM
6 | CNC(=O)c1c(-c2ccc(F)cc2)oc2cc(N(C)S(C)(=O)=O)c([C@H]3CCCN(S(=O)(=O)c4ccccc4C)C3)cc12 [Example 128, 2-(4-fluorophenyl)-N-methyl-6-[methyl(methylsulfonyl)amino]-5-{(3R)-1-[(2-methylphenyl)sulfonyl]piperidin-3-yl}-1-benzofuran-3-carboxamide] | 34.2 nM | 24.2 nM
7 | CNC(=O)c1c(-c2ccc(F)cc2)oc2cc(N(C)S(C)(=O)=O)c([C@H]3CCCN(S(=O)(=O)c4ccc5ncsc5c4)C3)cc12 [Example 129, 5-[(3R)-1-(1,3-benzothiazol-6-ylsulfonyl)piperidin-3-yl]-2-(4-fluorophenyl)-N-methyl-6-[methyl(methylsulfonyl)amino]-1-benzofuran-3-carboxamide] | 194 nM | 110 nM
8 | CNC(=O)c1c(-c2ccc(F)cc2)oc2cc(N(C)S(C)(=O)=O)c([C@H]3CCCN(S(=O)(=O)c4cccc(F)c4)C3)cc12 [Example 130, 2-(4-fluorophenyl)-5-{(3R)-1-[(3-fluorophenyl)sulfonyl]piperidin-3-yl}-N-methyl-6-[methyl(methylsulfonyl)amino]-1-benzofuran-3-carboxamide] | 174 nM | 95.5 nM
9 | CNC(=O)c1c(-c2ccc(F)cc2)oc2cc(N(C)S(C)(=O)=O)c([C@H]3CCCN(S(=O)(=O)c4ccc(F)cc4)C3)cc12 [Example 131, 2-(4-fluorophenyl)-5-{(3R)-1-[(4-fluorophenyl)sulfonyl]piperidin-3-yl}-N-methyl-6-[methyl(methylsulfonyl)amino]-1-benzofuran-3-carboxamide] | 176 nM | 88.9 nM
10 | CNC(=O)c1c(-c2ccc(F)cc2)oc2cc(N(C)S(C)(=O)=O)c([C@H]3CCCN(S(=O)(=O)C4CCCCC4)C3)cc12 [Example 132, 5-[(3R)-1-(cyclohexylsulfonyl)piperidin-3-yl]-2-(4-fluorophenyl)-N-methyl-6-[methyl(methylsulfonyl)amino]-1-benzofuran-3-carboxamide] | 93.3 nM | 56.1 nM
11 | CNC(=O)c1c(-c2ccc(F)cc2)oc2cc(N(C)S(C)(=O)=O)c([C@H]3CCCN(S(=O)(=O)c4c(Cl)nc5sccn45)C3)cc12 [Example 133, 5-{(3R)-1-[(6-chloroimidazo[2,1-b][1,3]thiazol-5-yl)sulfonyl]piperidin-3-yl}-2-(4-fluorophenyl)-N-methyl-6-[methyl(methylsulfonyl)amino]-1-benzofuran-3-carboxamide] | 106 nM | 74.7 nM
12 | CNC(=O)c1c(-c2ccc(F)cc2)oc2cc(N(C)S(C)(=O)=O)c([C@H]3CCCN(S(=O)(=O)c4ccccc4)C3)cc12 [Example 134, 2-(4-fluorophenyl)-N-methyl-6-[methyl(methylsulfonyl)amino]-5-[(3R)-1-(phenylsulfonyl)piperidin-3-yl]-1-benzofuran-3-carboxamide] | 85.9 nM | 58.3 nM
13 | CNC(=O)c1c(-c2ccc(F)cc2)oc2cc(N(C)S(C)(=O)=O)c([C@H]3CCCN(S(=O)(=O)C4CCCC4)C3)cc12 [Example 135, 5-[(3R)-1-(cyclopentylsulfonyl)piperidin-3-yl]-2-(4-fluorophenyl)-N-methyl-6-[methyl(methylsulfonyl)amino]-1-benzofuran-3-carboxamide] | 80.4 nM | 45.6 nM
14 | CNC(=O)c1c(-c2ccc(F)cc2)oc2cc(N(C)S(C)(=O)=O)c([C@H]3CCCN(S(=O)(=O)c4ccccc4F)C3)cc12 [Example 136, 2-(4-fluorophenyl)-5-{(3R)-1-[(2-fluorophenyl)sulfonyl]piperidin-3-yl}-N-methyl-6-[methyl(methylsulfonyl)amino]-1-benzofuran-3-carboxamide] | 58.5 nM | 40.5 nM
15 | CNC(=O)c1c(-c2ccc(F)cc2)oc2cc(N(C)S(C)(=O)=O)c([C@H]3CCCN(S(=O)(=O)Cc4ccccc4)C3)cc12 [Example 137, 5-[(3R)-1-(benzylsulfonyl)piperidin-3-yl]-2-(4-fluorophenyl)-N-methyl-6-[methyl(methylsulfonyl)amino]-1-benzofuran-3-carboxamide] | 2.15 nM | 3.04 nM
16 | CNC(=O)c1c(-c2ccc(F)cc2)oc2cc(N(C)S(C)(=O)=O)c([C@H]3CCCN(S(=O)(=O)c4cccc5nonc45)C3)cc12 [Example 138, 5-[(3R)-1-(2,1,3-benzoxadiazol-4-ylsulfonyl)piperidin-3-yl]-2-(4-fluorophenyl)-N-methyl-6-[methyl(methylsulfonyl)amino]-1-benzofuran-3-carboxamide] | 139 nM | 55.7 nM
17 | CNC(=O)c1c(-c2ccc(F)cc2)oc2cc(N(C)S(C)(=O)=O)c([C@H]3CCCN(S(=O)(=O)Cc4ccccn4)C3)cc12 [Example 139, 2-(4-fluorophenyl)-N-methyl-6-[methyl(methylsulfonyl)amino]-5-{(3R)-1-[(pyridin-2-ylmethyl)sulfonyl]piperidin-3-yl}-1-benzofuran-3-carboxamide] | 35 nM | 21.1 nM
18 | CNC(=O)c1c(-c2ccc(F)cc2)oc2cc(N(C)S(C)(=O)=O)c([C@H]3CCCN(S(=O)(=O)Cc4cccnc4)C3)cc12 [Example 140, 2-(4-fluorophenyl)-N-methyl-6-[methyl(methylsulfonyl)amino]-5-{(3R)-1-[(pyridin-3-ylmethyl)sulfonyl]piperidin-3-yl}-1-benzofuran-3-carboxamide] | 20.5 nM | 16.5 nM
19 | CNC(=O)c1c(-c2ccc(F)cc2)oc2cc(N(C)S(C)(=O)=O)c([C@H]3CCCN(S(=O)(=O)CCc4ccccc4)C3)cc12 [Example 141, 2-(4-fluorophenyl)-N-methyl-6-[methyl(methylsulfonyl)amino]-5-{(3R)-1-[(2-phenylethyl)sulfonyl]piperidin-3-yl}-1-benzofuran-3-carboxamide] | 10.6 nM | 14.2 nM
20 | CNC(=O)c1c(-c2ccc(F)cc2)oc2cc(N(C)S(C)(=O)=O)c([C@H]3CCCN(S(=O)(=O)c4cccc(C)c4)C3)cc12 [Example 142, 2-(4-fluorophenyl)-N-methyl-6-[methyl(methylsulfonyl)amino]-5-{(3R)-1-[(3-methylphenyl)sulfonyl]piperidin-3-yl}-1-benzofuran-3-carboxamide] | 198 nM | 91.7 nM
21 | CNC(=O)c1c(-c2ccc(F)cc2)oc2cc(N(C)S(C)(=O)=O)c([C@H]3CCCN(S(=O)(=O)c4cn(CC(C)C)nc4C)C3)cc12 [Example 143, 2-(4-fluorophenyl)-N-methyl-5-[(3R)-1-{[3-methyl-1-(2-methylpropyl)-1H-pyrazol-4-yl]sulfonyl}piperidin-3-yl]-6-[methyl(methylsulfonyl)amino]-1-benzofuran-3-carboxamide] | 315 nM | 214 nM
